Experimental data taken from US20030180291A1, “Method of inactivating viruses” (priority 1998, published 2003).
Values joined by “and” are separate entries in the source; they are usually repeats but may differ in a detail not shown here. Equal values may be shown once.

Tests used:
[1] = tested on: PseudoRabies virus (PSR, strain Bartha K61)
[2] = tested on: Humane Immunodeficiency Virus Type 1 (HIV-1, strain HTLV-IIIb)
[3] = tested on: Vesicular Stomatitis (VSV, strain Indiana)
[4] = tested on: humane erythrocytes; assay type: cell-based, human
[5] = tested on: Vesicular Stomatitis virus (VSV); assay type: cell-based

SMILES | effective [DMMB] [1] | effective [DMMB] [2] | effective [DMMB] [3] | haemolysis after the erythrocytes had been stored for 12 days at 4° C. [4] | effect of dipyridamol on the effective concentration of sensitizer [1] | effect of light exposure on virus inactivation in absence of sensitizer [5] | effect of dipyridamol on the effective concentration of sensitizer [2] | effect of dipyridamol on the effective concentration of sensitizer [3]
Cc1cc(=[N+](C)C)cc2sc3cc(N(C)C)cc(C)c3nc1-2.[Cl-] [DMMB, dimethyl-methylene blue] | 4 µM | 8 µM | 4 µM and 5 µM | – | – | – | – | –
OCCN(CCO)c1nc(N2CCCCC2)c2nc(N(CCO)CCO)nc(N3CCCCC3)c2n1 [dipyridamol] | – | – | – | very strong reduction | did not, or only barely appear to affect | no effect at all | did not, or only barely appear to affect | did not, or only barely appear to affect
Cc1ncc(COP(=O)(O)O)c(C=O)c1O [pyridoxal phosphate] | – | – | – | – | – | no effect at all | – | –
